Measurements reported in patent US20240016942A1, “STAT DEGRADERS AND USES THEREOF” (Kymera Therapeutics, Inc., priority 2020, published 2024).
Like-named read-outs stand apart in the source and are kept apart here.

Molecular target: T1, STAT3 (Homo sapiens, UniProt P40763)
T1 construct: expressed in transfected cells; host or cells: A549
Assay: STAT3 HiBiT degradation assay (Nano-Glo HiBiT lytic detection) in transfected A549 cells
Format: cell-based
Method: Example 1. HiBiT Assay Protocol
Compound preparation and Cell seeding: The transfected A549 cells were harvested from dish into cell culture medium and cell numbers counted. Cells were diluted with culture medium to the desired density and 30 μL of cell suspension (about 2000 cells/well) were added into each well of a 384-well cell culture plate as designated and transferred into 37° C. 5% CO2 incubator for 24 h. Compounds were dissolved to 10 mM stock solution and 12 μL of the stock solution was transferred to a 384 LDV-plate. 3 fold, 10-point dilution was performed by transferring 4 μL compound into 8 μL DMSO using a TECAN (EVO200) liquid handler. 30 μl of diluted compound from compound source plate was transferred into the cell plate as designated by using Echo550 and transferred into 37° C. 5% CO2 incubator for 24 h.
Detection: Plates were removed from incubators and equilibrated at room temperature for 15 minutes. Nano-Glo Hibit Lytic Detection reagent (Promega Cat #N3040) was thawed and equilibrated to room temperature before the experiment. 30 μL of Nano-Glo Hibit Lytic Detection reagent was added into each well to be detected. The plates were held at room temperature for 10 min followed by reading on EnSpire.
Data analysis: The remaining activity was calculated following the formula: Remaining Activity (%)=100%×(Lumsample−LumNC)/(LumPC−LumNC). Calculate the IC50 by fitting the curve using Xlfit (v5.3.1.3), equation 201: fit=(A+((B−A)/(1+((x/C)^D)))); A: Botton; B: Top; C: IC50; and D: Slope.
The letter codes for STAT3 DC50 include: A (<0.01 μM), B (0.01-0.1 μM), C (0.1-1.0 μM), and D (>1.0 μM).

[1] = 24 h compound incubation, read-out: STAT3 HiBIT A549 degradation 24 h: Average external-Abs DC50

T1 sequence (P40763 whole entry): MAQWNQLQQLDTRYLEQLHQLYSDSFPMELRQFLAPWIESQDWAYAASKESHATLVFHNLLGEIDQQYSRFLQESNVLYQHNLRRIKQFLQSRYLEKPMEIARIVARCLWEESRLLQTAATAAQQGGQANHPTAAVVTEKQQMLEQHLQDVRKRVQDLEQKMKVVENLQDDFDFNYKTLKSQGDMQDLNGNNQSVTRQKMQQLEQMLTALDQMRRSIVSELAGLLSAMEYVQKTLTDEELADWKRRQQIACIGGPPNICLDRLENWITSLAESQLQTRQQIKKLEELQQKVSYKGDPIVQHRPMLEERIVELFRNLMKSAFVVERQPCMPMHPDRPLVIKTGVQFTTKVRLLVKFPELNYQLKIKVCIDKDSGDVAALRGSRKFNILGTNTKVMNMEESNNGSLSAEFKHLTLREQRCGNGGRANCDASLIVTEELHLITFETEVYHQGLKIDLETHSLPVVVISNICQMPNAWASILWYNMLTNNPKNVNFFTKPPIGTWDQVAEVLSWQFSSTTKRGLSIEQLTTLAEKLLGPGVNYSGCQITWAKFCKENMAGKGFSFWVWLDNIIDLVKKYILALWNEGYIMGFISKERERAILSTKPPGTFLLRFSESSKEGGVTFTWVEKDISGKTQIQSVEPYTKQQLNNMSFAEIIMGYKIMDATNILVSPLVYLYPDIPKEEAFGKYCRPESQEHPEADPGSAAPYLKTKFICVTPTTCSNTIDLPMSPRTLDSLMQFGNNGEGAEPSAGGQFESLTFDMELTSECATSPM

SMILES	DC50 [1] [nM]	DC50 (read-out: STAT3 HiBIT A549 degradation 24 h: Average external-Abs DC50, 24 h compound incubation) [nM]
CNC(=O)CC[C@@H](C)NC(=O)[C@@H]1Cc2cc(CCCCCCc3ccc4c(c3)n(C)c(=O)n4C3CCC(=O)NC3=O)cc3c2N1C(=O)[C@@H](NC(=O)c1cc2cc(C(=O)P(=O)(O)O)ccc2[nH]1)CC3 (stereo partly shown) [I-22]	> 1000	–
CC(C)c1ccc(CNC(=O)[C@H](CCC(N)=O)NC(=O)[C@@H]2CC[C@@H]3CCN(C(=O)[C@H]4CC[C@@H](CCc5ccc6c(c5)n(C)c(=O)n6C5CCC(=O)NC5=O)CC4)C[C@H](NC(=O)c4cc5cc(C(=O)P(=O)(O)O)ccc5[nH]4)C(=O)N32)c(Cl)c1 (stereo partly drawn) [I-35, 2-[[(5S,8S,10aR)-8-[[(1S)-3-Carbamoyl-1-[[(2-chloro-4-isopropylphenyl)methyl]carbamoyl]propyl]carbamoyl]-6-oxo-3-[(1r,4s)-4-[2-[1-(2,6-dioxopiperidin-3-yl)-3-methyl-2-oxo-1,3-benzodiazol-5-yl]ethyl]cyclohexanecarbonyl]-octahydropyrrolo[1,2-a][1,5]diazocin-5-yl]carbamoyl]-1H-indole-5-carbonylphosphonic acid]	10 to 100	–
CC(C)c1ccc(CNC(=O)[C@H](CCC(=O)O)NC(=O)[C@@H]2CC[C@@H]3CCN(C(=O)[C@H]4CC[C@@H](CCc5ccc6c(c5)n(C)c(=O)n6C5CCC(=O)NC5=O)CC4)C[C@H](NC(=O)c4cc5cc(C(=O)P(=O)(O)O)ccc5[nH]4)C(=O)N32)cc1 (stereo partly drawn) [I-96, (4S)-4-[[(5S,8S,10aR)-6-oxo-5-[5-(phosphonocarbonyl)-1H-indole-2-amido]-3-[(1s,4s)-4-[2-[1-(2,6-dioxopiperidin-3-yl)-3-methyl-2-oxo-1,3-benzodiazol-5-yl]ethyl]cyclohexanecarbonyl]-octahydropyrrolo[1,2-a][1,5]diazocin-8-yl]formamido]-4-[[(4-isopropylphenyl)methyl]carbamoyl]butanoic acid]	> 1000	–
Cc1ncsc1-c1ccc([C@H](C)NC(=O)[C@@H]2C[C@@H](O)CN2C(=O)[C@@H](NC(=O)CCCCc2cccc(OC[C@H](CCC(N)=O)NC(=O)[C@@H]3CC[C@@H]4CCCC[C@H](NC(=O)c5cc6cc(C(=O)P(=O)(O)O)ccc6[nH]5)C(=O)N43)c2F)C(C)(C)C)cc1 [I-3]	< 10	–
Cc1ncsc1-c1ccc(C2(NC(=O)[C@@H]3C[C@@H](O)CN3C(=O)[C@@H](NC(=O)CCCCc3cccc(OC[C@H](CCC(N)=O)NC(=O)[C@@H]4CC[C@@H]5CCCC[C@H](NC(=O)c6cc7cc(C(=O)P(=O)(O)O)ccc7[nH]6)C(=O)N54)c3Cl)C(C)(C)C)CC2)cc1 [I-10]	< 10	–
CC(C)c1ccc(CNC(=O)[C@H](CCC(N)=O)NC(=O)[C@@H]2CC[C@@H]3CCN(C(=O)[C@H]4CC[C@@H](CCc5ccc6c(c5)n(C)c(=O)n6C5CCC(=O)NC5=O)CC4)C[C@H](NC(=O)c4cc5cc(C(=O)P(=O)(O)O)ccc5[nH]4)C(=O)N32)c(F)c1 (stereo partly shown) [I-34]	10 to 100	–
COC(=O)N1CC[C@H]2CC[C@@H](C(=O)N[C@@H](CCC(N)=O)COc3cccc(CCCC(=O)N[C@H](C(=O)N4C[C@H](O)C[C@H]4C(=O)N[C@@H](C)c4ccc(-c5scnc5C)cc4)C(C)(C)C)c3Cl)N2C(=O)[C@@H](NC(=O)c2cc3cc(C(F)(F)P(=O)(O)O)ccc3[nH]2)C1 [I-84]	> 1000	–
CC(C)c1ccc(CNC(=O)[C@H](CCC(N)=O)NC(=O)[C@@H]2CC[C@@H]3CCN(C(=O)[C@H]4CC[C@@H](CCc5ccc6c(c5)n(C)c(=O)n6C5CCC(=O)NC5=O)CC4)C[C@H](NC(=O)c4cc5cc(C(F)(F)P(=O)(O)O)ccc5s4)C(=O)N32)cc1 (stereo partly shown) [I-97]	> 1000	–
Cc1ncsc1-c1ccc([C@H](C)NC(=O)[C@@H]2C[C@@H](O)CN2C(=O)[C@@H](NC(=O)CCCCc2cccc(OC[C@H](CCC(N)=O)NC(=O)[C@@H]3CC[C@@H]4CCCC[C@H](NC(=O)c5cc6cc(C(=O)P(=O)(O)O)ccc6[nH]5)C(=O)N43)c2Cl)C(C)(C)C)cc1 [I-1]	< 10	–
Cn1c(=O)n(C2CCC(=O)NC2=O)c2ccc(C[C@H]3CC[C@@H](CC(=O)N4CC[C@H]5CC[C@@H](C(=O)N[C@@H](CCC(N)=O)COc6cccc(S(C)(=O)=O)c6)N5C(=O)[C@@H](NC(=O)c5cc6cc(C(=O)P(=O)(O)O)ccc6[nH]5)C4)CC3)cc21 (stereo partly shown) [I-51]	10 to 100	–
CC(C)c1ccc(CNC(=O)[C@H](CCC(N)=O)NC(=O)[C@@H]2CC[C@@H]3CCN(C(=O)[C@H]4CC[C@@H](CCc5ccc6c(c5)n(C)c(=O)n6C5CCC(=O)NC5=O)CC4)C[C@H](NC(=O)c4cc5cc(C(=O)P(=O)(O)O)ccc5[nH]4)C(=O)N32)cc1 (stereo partly drawn) [I-59, (2-(((5S,8S,10aR)-8-(((S)-5-amino-1-((4-isopropylbenzyl)amino)-1,5-dioxopentan-2-yl)carbamoyl)-3-((1r,4R)-4-(2-(1-(2,6-dioxopiperidin-3-yl)-3-methyl-2-oxo-2,3-dihydro-1H-benzo[d]imidazol-5-yl)ethyl)cyclohexane-1-carbonyl)-6-oxodecahydropyrrolo[1,2-a][1,5]diazocin-5-yl)carbamoyl)-1H-indole-5-carbonyl)phosphonic acid]	10 to 100	–
Cn1c(=O)n(C2CCC(=O)NC2=O)c2ccc(CCCCCc3cccc(OC[C@H](CCC(N)=O)NC(=O)[C@@H]4CC[C@@H]5CCCC[C@H](NC(=O)c6cc7cc(C(=O)P(=O)(O)O)ccc7[nH]6)C(=O)N54)c3Cl)cc21 (stereo partly shown) [I-28]	100 to 1000	–
C[C@H](CCC(N)=O)NC(=O)[C@@H]1Cc2cc(CCCCCCc3ccc4c(c3)n(C)c(=O)n4C3CCC(=O)NC3=O)cc3c2N1C(=O)[C@@H](NC(=O)c1cc2cc(C(=O)P(=O)(O)O)ccc2[nH]1)CC3 (stereo partly shown) [I-49]	10 to 100	–
C[C@H](CCC(N)=O)NC(=O)[C@@H]1CC[C@@H]2CCN(C(=O)C[C@H]3CC[C@@H](Cc4ccc5c(c4)n(C)c(=O)n5C4CCC(=O)NC4=O)CC3)C[C@H](NC(=O)c3cc4cc(C(=O)P(=O)(O)O)ccc4[nH]3)C(=O)N21 (stereo partly shown) [I-50]	100 to 1000	–
CC(=O)N1CC[C@H]2CC[C@@H](C(=O)N[C@@H](CCC(N)=O)COc3cccc(CCCC(=O)N[C@H](C(=O)N4C[C@H](O)C[C@H]4C(=O)NC4(c5ccc(-c6scnc6C)cc5)CC4)C(C)(C)C)c3Cl)N2C(=O)[C@@H](NC(=O)c2cc3cc(C(=O)P(=O)(O)O)ccc3[nH]2)C1 [I-72]	10 to 100	–
CC(=O)N1CC[C@H]2CC[C@@H](C(=O)N[C@@H](CCC(N)=O)COc3cccc(CCCC(=O)N[C@H](C(=O)N4C[C@H](O)C[C@H]4C(=O)N[C@@H](C)c4ccc(-c5scnc5C)cc4)C(C)(C)C)c3Cl)N2C(=O)[C@@H](NC(=O)c2cc3cc(C(F)(F)P(=O)(O)O)ccc3s2)C1 [I-83]	–	> 1000
Cn1c(=O)n(C2CCC(=O)NC2=O)c2ccc(C[C@H]3CC[C@H](CC(=O)N4CC[C@H]5CC[C@@H](C(=O)N[C@@H](CCC(N)=O)C(=O)NCc6ccc(S(C)(=O)=O)cc6)N5C(=O)[C@@H](NC(=O)c5cc6cc(C(=O)P(=O)(O)O)ccc6[nH]5)C4)CC3)cc21 (stereo partly shown) [I-74]	10 to 100	–
Cc1ncsc1-c1ccc([C@H](C)NC(=O)[C@@H]2C[C@@H](O)CN2C(=O)[C@@H](NC(=O)CCCc2cccc(OC[C@H](CCC(N)=O)NC(=O)[C@@H]3CC[C@@H]4CCCC[C@H](NC(=O)c5cc6cc(C(=O)P(=O)(O)O)ccc6[nH]5)C(=O)N43)c2Cl)C(C)(C)C)cc1 [I-2]	< 10	–
C[C@H](CCC(=O)N(C)C)NC(=O)[C@@H]1Cc2cc(CCCCCCc3ccc4c(c3)n(C)c(=O)n4C3CCC(=O)NC3=O)cc3c2N1C(=O)[C@@H](NC(=O)c1cc2cc(C(=O)P(=O)(O)O)ccc2[nH]1)CC3 (stereo partly shown) [I-21]	> 1000	–
Cn1c(=O)n(C2CCC(=O)NC2=O)c2ccc(CCCc3cccc(OC[C@H](CCC(N)=O)NC(=O)[C@@H]4CC[C@@H]5CCCC[C@H](NC(=O)c6cc7cc(C(=O)P(=O)(O)O)ccc7[nH]6)C(=O)N54)c3Cl)cc21 (stereo partly shown) [I-27]	> 1000	–
CC(=O)N1CC[C@H]2CC[C@@H](C(=O)N[C@@H](CCC(N)=O)COc3cc(C)cc(CCCC(=O)N[C@H](C(=O)N4C[C@H](O)C[C@H]4C(=O)N[C@@H](C)c4ccc(-c5scnc5C)cc4)C(C)(C)C)c3F)N2C(=O)[C@@H](NC(=O)c2cc3cc(C(=O)P(=O)(O)O)ccc3[nH]2)C1 [I-78]	< 10	–
Cn1c(=O)n(C2CCC(=O)NC2=O)c2ccc(C[C@H]3CC[C@@H](CC(=O)N4CC[C@H]5CC[C@@H](C(=O)N[C@@H](CCC(N)=O)C(=O)NCc6ccc(S(C)(=O)=O)cc6Cl)N5C(=O)[C@@H](NC(=O)c5cc6cc(C(=O)P(=O)(O)O)ccc6[nH]5)C4)CC3)cc21 (stereo partly shown) [I-45]	10 to 100	–
CC(C)S(=O)(=O)c1ccc(CNC(=O)[C@H](CCC(N)=O)NC(=O)[C@@H]2CC[C@@H]3CCN(C(=O)C[C@H]4CC[C@@H](Cc5ccc6c(c5)n(C)c(=O)n6C5CCC(=O)NC5=O)CC4)C[C@H](NC(=O)c4cc5cc(C(=O)P(=O)(O)O)ccc5[nH]4)C(=O)N32)cc1 (stereo partly shown) [I-70]	10 to 100	–
CC(C)c1ccc(CNC(=O)[C@H](CCC(N)=O)NC(=O)[C@@H]2CC[C@@H]3CCN(C(=O)[C@H]4CC[C@@H](CCc5ccc6c(c5)n(C)c(=O)n6C5CCC(=O)NC5=O)CC4)C[C@H](NC(=O)c4cc5cc(C(=O)P(=O)(O)O)ccc5[nH]4)C(=O)N32)cc1F (stereo partly shown) [I-30]	10 to 100	–
Cn1c(=O)n(C2CCC(=O)NC2=O)c2ccc(CCCCc3cccc(OC[C@H](CCC(N)=O)NC(=O)[C@@H]4CC[C@@H]5CCCC[C@H](NC(=O)c6cc7cc(C(=O)P(=O)(O)O)ccc7[nH]6)C(=O)N54)c3Cl)cc21 (stereo partly shown) [I-32]	> 1000	–
